According to patent US4753953A, “Pyridonecarboxylic acid derivatives and antibacterial pharmaceutical compositions thereof” (priority 1985, dated 1988):
In brackets after ≈: the same amount, converted by molar mass. Like-named read-outs stand apart in the source and are kept apart here.

Assays:
[1] = tested on: Staphylococcus aureus 209 P; test: MIC, in vitro antibacterial activity (standard strains); format: cell-based; details: Staphylococcus aureus, 209P; 10^6 cells/ml; Gram +; read-out: MIC
[2] = tested on: B. fragilis 25285; test: as above; format: cell-based, Bacteroides fragilis; details: Bacteroides fragilis, 25285; 10^6 cells/ml; Gram -; read-out: MIC
[3] = tested on: B. fragilis 0558; test: as above; format: cell-based, Bacteroides fragilis; details: Bacteroides fragilis, 0558; 10^6 cells/ml; Gram -; read-out: MIC
[4] = tested on: C. perfringens KYA 13123; test: microbe, parasite or virus in culture; format: cell-based; details: Clostridium perfringens, KYA13123
[5] = tested on: Fusobacterium mortiferum 4249; test: MIC, in vitro antibacterial activity (standard strains); format: cell-based; details: Fusobacterium mortiferum, 4249; 10^6 cells/ml; Gram -; read-out: MIC
[6] = tested on: B. thetaiotaomicron (0661); test: as above; format: cell-based; details: Bacteroides thetaiotaomicron; 10^6 cells/ml; Gram -; read-out: MIC
[7] = tested on: P. mirabilis IID 994; test: as above; format: cell-based; details: Proteus mirabilis, IID994; 10^6 cells/ml; Gram -; read-out: MIC
[8] = tested on: Enterobacter cloacae IID 977; test: as above; format: cell-based; details: Enterobacter cloacae, IID977; 10^6 cells/ml; Gram -; read-out: MIC
[9] = tested on: Alcaligenes faecalis 0114002; test: as above; format: cell-based; details: Alcaligenes faecalis, 0114002; 10^6 cells/ml; Gram -; read-out: MIC
[10] = tested on: Shigella sonnei IID 969; test: as above; format: cell-based; details: Shigella sonnei, IID969; 10^6 cells/ml; Gram -; read-out: MIC
Method: Minimal inhibitory concentrations (MICs) were determined in accordance with the method recommended by Japan Society of Chemotherapy.

[11] = tested on: Proteus vulgaris IFO 3167; test: as above; format: cell-based; details: Proteus vulgaris, IFO3167; 10^6 cells/ml; Gram -; read-out: MIC
[12] = tested on: Yersinia enterocolitica IID 981; test: as above; format: cell-based; details: Yersinia enterocolitica, IID981; 10^6 cells/ml; Gram -; read-out: MIC
[13] = tested on: S. epidermidis IID 866; test: as above; format: cell-based; details: Staphylococcus epidermidis, IID866; 10^6 cells/ml; Gram +; read-out: MIC
[14] = tested on: C. ramosum; test: as above; format: cell-based; details: Thomasclavelia ramosa; 10^6 cells/ml; Gram +; read-out: MIC
[15] = tested on: E. faecalis IID 682; test: as above; format: cell-based; details: Enterococcus faecalis, IID682; 10^6 cells/ml; Gram +; read-out: MIC
[16] = tested on: B. distasonis 8503; test: as above; format: cell-based; details: Parabacteroides distasonis, 8503; 10^6 cells/ml; Gram -; read-out: MIC
[17] = tested on: Bacteroides fragilis GM 7000; test: as above; format: cell-based; details: Bacteroides fragilis, GM7000; 10^6 cells/ml; Gram -; read-out: MIC
[18] = tested on: Eubacterium lentum GAI 5242; test: as above; format: cell-based; details: Eggerthella lenta, GAI5242; 10^6 cells/ml; Gram +; read-out: MIC
[19] = tested on: Citrobacter freundii IID 976; test: as above; format: cell-based; details: Citrobacter freundii, IID976; 10^6 cells/ml; Gram -; read-out: MIC
[20] = tested on: E. coli ATCC 10536; test: as above; format: cell-based, Escherichia coli; details: Escherichia coli, ATCC10536; 10^6 cells/ml; Gram -; read-out: MIC
[21] = tested on: F. varium KYA 8501; test: as above; format: cell-based; details: Fusobacterium varium, KYA8501; 10^6 cells/ml; Gram -; read-out: MIC
[22] = tested on: Streptococcus pyogenes (S-8); test: as above; format: cell-based; details: Streptococcus pyogenes; 10^6 cells/ml; Gram +; read-out: MIC
[23] = tested on: Pseudomonas aeruginosa V-1; test: as above; format: cell-based; details: Pseudomonas aeruginosa, V1
[24] = tested on: P. aeruginosa IID 1210; test: as above; format: cell-based, Pseudomonas aeruginosa; details: Pseudomonas aeruginosa, IID1210; 10^6 cells/ml; Gram -; read-out: MIC
[25] = tested on: Salmonella enteritidis IID 604; test: as above; format: cell-based; details: Salmonella enterica; 10^6 cells/ml; Gram -; read-out: MIC
[26] = tested on: Klebsiella pneumoniae KY(GN)6445; test: as above; format: cell-based; details: Klebsiella pneumoniae; 10^6 cells/ml; Gram -; read-out: MIC
[27] = tested on: Peptostreptococcus anaerobius KYA 27337; test: as above; format: cell-based; details: Peptostreptococcus anaerobius, KYA27337; 10^6 cells/ml; Gram +; read-out: MIC
[28] = tested on: S. pyogenes IID 692; test: as above; format: cell-based, Streptococcus pyogenes; details: Streptococcus pyogenes, IID692; 10^6 cells/ml; Gram +; read-out: MIC
[29] = tested on: Morganella morganii IID 602; test: as above; format: cell-based; details: Morganella morganii, IID602; 10^6 cells/ml; Gram -; read-out: MIC
[30] = tested on: Serratia marcescens IID 618; test: as above; format: cell-based; details: Serratia marcescens, IID618; 10^6 cells/ml; Gram -; read-out: MIC
[31] = tested on: S. aureus Smith; test: as above; format: cell-based, Staphylococcus aureus; details: Staphylococcus aureus; 10^6 cells/ml; Gram +; read-out: MIC
[32] = tested on: P. cepacia GIFU 518; test: as above; format: cell-based; details: Burkholderia cepacia, GIFU518; 10^6 cells/ml; Gram -; read-out: MIC
[33] = 10^6 cells/ml, Gram -, read-out: MIC

SMILES	MIC [1] [µg/mL]	MIC [2] [µg/mL]	MIC [3] [µg/mL]	MIC [4] [µg/mL]	MIC [5] [µg/mL]	MIC [6] [µg/mL]	MIC [7] [µg/mL]	MIC [8] [µg/mL]	MIC [9] [µg/mL]	MIC [10] [µg/mL]	MIC [11] [µg/mL]	MIC [12] [µg/mL]	MIC [13] [µg/mL]	MIC [14] [µg/mL]	MIC [16] [µg/mL]	MIC [17] [µg/mL]	MIC [18] [µg/mL]	MIC [19] [µg/mL]	MIC [20] [µg/mL]	MIC [21] [µg/mL]	further results
C[C@@H]1CN(c2c(F)cc3c(=O)c(C(=O)O)cn(C4CC4)c3c2Br)C[C@H]1N (relative stereo) [Example 32, 7-(trans-3-Amino-4-methyl-1-pyrrolidinyl)-8-bromo-1-cyclopropyl-6-fluoro-1,4-dihydro-4-oxo-3-quinolinecarboxylic acid]	0.025 (≈ 0.0589 µM)	0.1 (≈ 0.236 µM)	0.05 (≈ 0.118 µM)	0.2 (≈ 0.471 µM)	0.2 (≈ 0.471 µM)	0.2 (≈ 0.471 µM)	0.05 (≈ 0.118 µM)	0.05 (≈ 0.118 µM)	0.1 (≈ 0.236 µM)	0.0063 (≈ 0.0148 µM)	0.0125 (≈ 0.0295 µM)	0.025 (≈ 0.0589 µM)	0.05 (≈ 0.118 µM)	0.78 (≈ 1.84 µM)	0.2 (≈ 0.471 µM)	0.1 (≈ 0.236 µM)	0.1 (≈ 0.236 µM)	0.025 (≈ 0.0589 µM)	0.0125 (≈ 0.0295 µM)	0.78 (≈ 1.84 µM)	MIC [15]: 0.2 µg/mL (≈ 0.471 µM); MIC [22]: 0.1 µg/mL (≈ 0.236 µM); MIC [23]: 0.2 µg/mL (≈ 0.471 µM); MIC [24]: 0.78 µg/mL (≈ 1.84 µM); MIC [25]: 0.05 µg/mL (≈ 0.118 µM); MIC [26]: 0.025 µg/mL (≈ 0.0589 µM); MIC [27]: 0.2 µg/mL (≈ 0.471 µM); MIC [28]: 0.2 µg/mL (≈ 0.471 µM); MIC [29]: 0.05 µg/mL (≈ 0.118 µM); MIC [30]: 0.05 µg/mL (≈ 0.118 µM); MIC [31]: 0.025 µg/mL (≈ 0.0589 µM)
C[C@H]1CN(c2cc3c(cc2F)c(=O)c(C(=O)O)cn3C2CC2)C[C@H]1N (relative stereo) [Example 33, 7-(cis-3-Amino-4-methyl-1-pyrrolidinyl)-1-cyclopropyl-6-fluoro-1,4-dihydro-4-oxo-3-quinolinecarboxylic acid]	0.05 (≈ 0.145 µM)	1.56 (≈ 4.52 µM)	1.56 (≈ 4.52 µM)	0.78 (≈ 2.26 µM)	1.56 (≈ 4.52 µM)	6.25 (≈ 18.1 µM)	0.05 (≈ 0.145 µM)	0.05 (≈ 0.145 µM)	0.2 (≈ 0.579 µM)	0.05 (≈ 0.145 µM)	0.05 (≈ 0.145 µM)	0.05 (≈ 0.145 µM)	0.1 (≈ 0.29 µM)	6.25 (≈ 18.1 µM)	6.25 (≈ 18.1 µM)	1.56 (≈ 4.52 µM)	0.78 (≈ 2.26 µM)	0.05 (≈ 0.145 µM)	0.05 (≈ 0.145 µM)	12.5 (≈ 36.2 µM)	MIC [15]: 0.39 µg/mL (≈ 1.13 µM); MIC [22]: 0.78 µg/mL (≈ 2.26 µM); MIC [23, 33]: 0.2 µg/mL (≈ 0.579 µM); MIC [24]: 1.56 µg/mL (≈ 4.52 µM); MIC [25]: 0.05 µg/mL (≈ 0.145 µM); MIC [26]: 0.05 µg/mL (≈ 0.145 µM); MIC [27]: 1.56 µg/mL (≈ 4.52 µM); MIC [28]: 0.39 µg/mL (≈ 1.13 µM); MIC [29]: 0.05 µg/mL (≈ 0.145 µM); MIC [30]: 0.05 µg/mL (≈ 0.145 µM); MIC [31]: 0.1 µg/mL (≈ 0.29 µM)
CC1CN(c2c(F)cc3c(=O)c(C(=O)O)cn(C4CC4)c3c2F)CC1N.Cl (stereo not shown) [Example 11, 7-(3-Amino-4-methyl-1-pyrrolidinyl)-1-cyclopropyl-6,8-difluoro-1,4-dihydro-4-oxo-3-quinolinecarboxylic acid hydrochloride]	0.05	0.39	0.39	0.39	0.39	0.78	0.05	0.05	0.2	0.025	0.025	0.05	0.1	1.56	0.78	0.78	0.39	0.05	0.025	1.56	MIC [32]: 0.39 µg/mL; MIC [23, 33]: 0.39 µg/mL; MIC [24]: 0.39 µg/mL; MIC [25]: 0.05 µg/mL; MIC [26]: 0.025 µg/mL; MIC [27]: 0.39 µg/mL; MIC [29]: 0.05 µg/mL; MIC [30]: 0.05 µg/mL; MIC [31]: 0.05 µg/mL
